Data as given in paper PMC11374673, “Discovery of isoquinoline sulfonamides as allosteric gyrase inhibitors with activity against fluoroquinolone-resistant bacteria” (Nature Chemistry, 2024).
In brackets after ≈: the same amount, converted by molar mass. Several values for one entry are separate records, joined by “and”; a condition that tells them apart may be missing. Identical values can stand only once. Like-named read-outs stand apart in the source and are kept apart here.

Key:
[1] = test system: E. coli BW25113 and single-gene knockouts; experiment: MIC on E. coli strains of the Keio collection; assay type: cell-based, Escherichia coli; conditions: for MIC: Escherichia coli
Description: (§1) MIC was determined by broth microdilution. Single-colony cultures were grown to exponential phase (OD600 of 0.5) aerobically at 37 °C. In case of strains from the Keio collection, 50 µg ml^−1 kanamycin was supplemented to the media to ascertain a homogeneous population. The bacterial suspensions were diluted 100-fold in CAMHB and 50 µl was added to a twofold serial dilution series of test compounds (50 µl per well) in polypropylene 96-well microtitre plates to reach a volume of 100 µl. The plates were sealed with breathable membranes and incubated overnight at 37 °C with constant shaking (600 r.p.m.). The MIC was determined as the lowest concentration at which no visible bacterial growth was observed as compared with the inoculum controls from the median of a minimum of triplicates.

HepG2 = experiment: Cytotoxicity assay (MTT); assay type: cell-based, human; conditions: for IC50: MTT, 24 h
HEK293T = experiment: Cytotoxicity assay (MTT); assay type: cell-based, human; conditions: for MTT data (raw readout): HEK293T; for IC50: 24 h, MTT
Outline: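 HEK293T cells, maintained at 37 °C and 7% CO2 in Dulbecco’s modified Eagle medium with GlutaMax, antibiotics and serum, were plated in clear 96-well plates in 100 µl medium containing 1% fetal bovine serum and left 24 h to attach. After 24 h compound exposure, MTT (0.40 mg ml^−1) was added for 2 h. Formazan was dissolved in 100 µl DMSO and absorbance measured at 570 nm. Background-corrected IC50 values came from variable-slope non-linear fits.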

[2] = test system: E. coli W3110 gyrA S97L, S83L, D87N; experiment: MIC against CRISPR/Cas9 gyrA point mutants; assay type: cell-based, Escherichia coli; conditions: for susceptibility of gyrA S97L mutant: CRISPR–Cas9 S97L; for MIC: Escherichia coli
Description: as §1
Mutants of the DNA gyrase subunit A encoding gene (gyrA) were constructed following the protocol for gene editing via the CRISPR–Cas9 system. Strains and plasmids used are listed in Supplementary Table 15, and primers used can be found in Supplementary Table 16. The following mutations were created: S97L in E. coli W3110. Two common mutations in the gyrA gene that give resistance to fluoroquinolone antibiotics were created in E. coli W3110, namely S83L and D87N. To create the gyrA (S97L) mutants, the construct psgRNA-gyrA-M5 was assembled as follows: The 20-nt spacer sequence was introduced by PCR on pTargetF using primers gyrA_P11 and gyrA_P12, the homology-directed repair (HDR) arms were amplified from E. coli W3110 genomic DNA by PCR using primer pairs gyrA_P05 and gyrA_P013, and gyrA_P08 and gyrA_P14. The three PCR fragments generated were cloned into the SpeI and BglII digested pTargetF via Gibson assembly. To avoid off-target effects of CRISPR, besides desired point mutation for gyrA (S97L), four other silent point mutations were also included in the HDR template. Consequently, the amino acid sequence of gyrA will remain the same in the generated mutant except for the desired mutation. Similarly, constructs psgRNA-gyrA-S83L and psgRNA-gyrA-D87N were created to introduce mutations S83L and D87N in gyrA, respectively. In psgRNA-gyrA-S83L, spacer sequence was introduced using primers gyrA_P12 and gyrA_P17, HDR template was amplified using primer pairs gyrA_P05 and gyrA_P18, and gyrA_P08 and gyrA_P19. In psgRNA-gyrA-D87N, spacer sequence was introduced using primers gyrA_P12 and gyrA_P20, HDR template was amplified using primer pairs gyrA_P05 and gyrA_P21, and gyrA_P08 and gyrA_P22. The verified constructs for gyrA engineering were transformed into E. coli W3110 carrying pCas9, and plated in LB containing kanamycin (50 µg ml^−1) for the selection of the pCas9 plasmid and spectinomycin (100 µg ml^−1) for the selection of psgRNA-gyrA-X. The plates were incubated at 30 °C. Plasmids were cured by growing the strains with 0.5 mM isopropylthiogalactoside with no antibiotics to lose first the psgRNA-gyrA plasmids. After losing the spectinomycin resistance, the strain was grown in LB with no antibiotics at 42 °C to lose the pCas plasmid. Colony PCR was performed on plasmid-free colonies using primers gyrA_P9 and gyrA_P10, and PCR products were sequenced to confirm the desired mutation

[3] = BW25113, read-out: MIC E. coli BW25113, parent strain
[4] = E. coli W3110 gyrA D87N (FQ-resistant 2)
[5] = E. coli W3110 gyrA S83L (FQ-resistant 1)
[6] = E. coli W3110 gyrA S97L (LEI-800-resistant)

Compound: O=S(=O)(NC[C@@H]1CC[C@H](c2ccc(-c3cccnc3)cc2)N1)c1cccc2cnccc12 [LEI-800]
- potency against ΔtolC efflux pump mutant [1]: No increase in potency
- MIC ([1]; BW25113, JW3594 ΔrfaD): 0.4 µM (≈ 0.178 µg/mL)
- MIC ([1]; BW25113, JW3596 ΔrfaC, LPS disruption (genetic)): 0.4 µM (≈ 0.178 µg/mL)
- MIC ([1]; BW25113, JW3600 ΔrfaY): 1.6 µM (≈ 0.711 µg/mL)
- MIC ([1]; BW25113, JW3602 ΔrfaI): 1.6 µM (≈ 0.711 µg/mL)
- MIC ([1]; BW25113, JW3605 ΔrfaP): 0.4 µM (≈ 0.178 µg/mL)
- MIC ([1]; BW25113, JW5503 ΔTolC): 3.1 µM (≈ 1.38 µg/mL)
- MIC [1, 3]: 3.1 µM (≈ 1.38 µg/mL)
- MTT data (raw readout) (HepG2; HepG2, 0.023 uM, experiment n = 1, technical triplicates, listed as LEI-800 (102)): 0.404 and 0.388 and 0.378
- MTT data (raw readout) (HepG2; HepG2, 0.023 uM, experiment n = 2, technical triplicates, listed as LEI-800 (102)): 0.268 and 0.286 and 0.353
- MTT data (raw readout) (HepG2; HepG2, 0.068 uM, experiment n = 1, technical triplicates, listed as LEI-800 (102)): 0.391 and 0.379 and 0.435
- MTT data (raw readout) (HepG2; HepG2, 0.068 uM, experiment n = 2, technical triplicates, listed as LEI-800 (102)): 0.250 and 0.293 and 0.379
- MTT data (raw readout) (HepG2; HepG2, 0.21 uM, experiment n = 1, technical triplicates, listed as LEI-800 (102)): 0.377 and 0.445 and 0.431
- MTT data (raw readout) (HepG2; HepG2, 0.21 uM, experiment n = 2, technical triplicates, listed as LEI-800 (102)): 0.243 and 0.281 and 0.327
- MTT data (raw readout) (HepG2; HepG2, 0.62 uM, experiment n = 1, technical triplicates, listed as LEI-800 (102)): 0.371 and 0.373 and 0.384
- MTT data (raw readout) (HepG2; HepG2, 0.62 uM, experiment n = 2, technical triplicates, listed as LEI-800 (102)): 0.248 and 0.278 and 0.343
- MTT data (raw readout) (HepG2; HepG2, 1.85 uM, experiment n = 1, technical triplicates, listed as LEI-800 (102)): 0.402 and 0.403 and 0.424
- MTT data (raw readout) (HepG2; HepG2, 1.85 uM, experiment n = 2, technical triplicates, listed as LEI-800 (102)): 0.281 and 0.293 and 0.337
- IC50 (HepG2; Homo sapiens, HepG2, 24 h): > 100 µM
- IC50 (HepG2; listed as LEI-800 (102)): > 50 µM
- MTT data (raw readout) (HEK293T; 0.023 uM, experiment n = 1, technical triplicates, listed as LEI-800 (102)): 1.514 and 1.430 and 1.503
- MTT data (raw readout) (HEK293T; 0.023 uM, experiment n = 2, technical triplicates, listed as LEI-800 (102)): 0.881 and 0.910 and 1.010
- MTT data (raw readout) (HEK293T; 0.068 uM, experiment n = 1, technical triplicates, listed as LEI-800 (102)): 1.213 and 1.245 and 1.353
- MTT data (raw readout) (HEK293T; 0.068 uM, experiment n = 2, technical triplicates, listed as LEI-800 (102)): 0.864 and 0.913 and 1.008
- MTT data (raw readout) (HEK293T; 0.21 uM, experiment n = 1, technical triplicates, listed as LEI-800 (102)): 1.179 and 1.313 and 1.432
- MTT data (raw readout) (HEK293T; 0.21 uM, experiment n = 2, technical triplicates, listed as LEI-800 (102)): 0.911 and 0.971 and 1.136
- MTT data (raw readout) (HEK293T; 0.62 uM, experiment n = 1, technical triplicates, listed as LEI-800 (102)): 1.153 and 1.305 and 1.537
- MTT data (raw readout) (HEK293T; 0.62 uM, experiment n = 2, technical triplicates, listed as LEI-800 (102)): 0.849 and 0.899 and 1.012
- MTT data (raw readout) (HEK293T; 1.85 uM, experiment n = 1, technical triplicates, listed as LEI-800 (102)): 1.133 and 1.157 and 1.398
- MTT data (raw readout) (HEK293T; 1.85 uM, experiment n = 2, technical triplicates, listed as LEI-800 (102)): 0.878 and 0.935 and 1.030
- IC50 (HEK293T; Homo sapiens, HEK-293T): 65 µM
- IC50 (HEK293T; listed as LEI-800 (102)): > 50 µM
- susceptibility of gyrA S83L / D87N mutants [2]: did not affect the susceptibility
- susceptibility of gyrA S97L mutant [2]: resistant
- MIC [2, 4]: 6.25 µM (≈ 2.78 µg/mL)
- MIC [2, 5]: 6.25 µM (≈ 2.78 µg/mL)
- MIC [2, 6]: > 50 µM

Compound: O=S(=O)(NC[C@@H]1CC[C@H](c2ccc(-c3ccc(F)cc3)cc2)N1)c1cccc2cnccc12 [Compound 101]
- MIC [1, 3]: 1.6 µM (≈ 0.738 µg/mL)
- MTT data (raw readout) (HepG2; HepG2, 0.023 uM, experiment n = 1, technical triplicates): 0.470 and 0.394 and 0.364
- MTT data (raw readout) (HepG2; HepG2, 0.023 uM, experiment n = 2, technical triplicates): 0.305 and 0.260 and 0.288
- MTT data (raw readout) (HepG2; HepG2, 0.068 uM, experiment n = 1, technical triplicates): 0.452 and 0.420 and 0.368
- MTT data (raw readout) (HepG2; HepG2, 0.068 uM, experiment n = 2, technical triplicates): 0.322 and 0.313 and 0.323
- MTT data (raw readout) (HepG2; HepG2, 0.21 uM, experiment n = 1, technical triplicates): 0.390 and 0.419 and 0.407
- MTT data (raw readout) (HepG2; HepG2, 0.21 uM, experiment n = 2, technical triplicates): 0.324 and 0.279 and 0.267
- MTT data (raw readout) (HepG2; HepG2, 0.62 uM, experiment n = 1, technical triplicates): 0.368 and 0.340 and 0.370
- MTT data (raw readout) (HepG2; HepG2, 0.62 uM, experiment n = 2, technical triplicates): 0.315 and 0.269 and 0.267
- MTT data (raw readout) (HepG2; HepG2, 1.85 uM, experiment n = 1, technical triplicates): 0.439 and 0.392 and 0.378
- MTT data (raw readout) (HepG2; HepG2, 1.85 uM, experiment n = 2, technical triplicates): 0.289 and 0.297 and 0.299
- MTT data (raw readout) (HepG2; HepG2, 5.6 uM, experiment n = 1, technical triplicates): 0.403 and 0.384 and 0.371
- MTT data (raw readout) (HepG2; HepG2, 5.6 uM, experiment n = 2, technical triplicates): 0.315 and 0.277 and 0.266
- MTT data (raw readout) (HepG2; HepG2, 16.7 uM, experiment n = 1, technical triplicates): 0.208 and 0.211 and 0.189
- MTT data (raw readout) (HepG2; HepG2, 16.7 uM, experiment n = 2, technical triplicates): 0.140 and 0.112 and 0.095
- IC50 (HepG2; Homo sapiens, HepG2, 24 h): 13 µM
- cytotoxicity (HEK293T; HEK293T and HepG2): substantial cytotoxicity
- MTT data (raw readout) (HEK293T; 0.023 uM, experiment n = 1, technical triplicates): 1.467 and 1.369 and 1.336
- MTT data (raw readout) (HEK293T; 0.023 uM, experiment n = 2, technical triplicates): 0.913 and 0.978 and 0.995
- MTT data (raw readout) (HEK293T; 0.068 uM, experiment n = 1, technical triplicates): 1.354 and 1.258 and 1.005
- MTT data (raw readout) (HEK293T; 0.068 uM, experiment n = 2, technical triplicates): 1.026 and 1.021 and 0.846
- MTT data (raw readout) (HEK293T; 0.21 uM, experiment n = 1, technical triplicates): 1.223 and 1.254 and 1.173
- MTT data (raw readout) (HEK293T; 0.21 uM, experiment n = 2, technical triplicates): 1.069 and 0.984 and 0.926
- MTT data (raw readout) (HEK293T; 0.62 uM, experiment n = 1, technical triplicates): 1.112 and 0.937 and 0.942
- MTT data (raw readout) (HEK293T; 0.62 uM, experiment n = 2, technical triplicates): 0.770 and 0.738 and 0.688
- MTT data (raw readout) (HEK293T; 1.85 uM, experiment n = 1, technical triplicates): 0.725 and 0.641 and 0.684
- MTT data (raw readout) (HEK293T; 1.85 uM, experiment n = 2, technical triplicates): 0.521 and 0.485 and 0.507
- MTT data (raw readout) (HEK293T; 5.6 uM, experiment n = 1, technical triplicates): 0.749 and 0.695 and 0.667
- MTT data (raw readout) (HEK293T; 5.6 uM, experiment n = 2, technical triplicates): 0.483 and 0.462 and 0.474
- MTT data (raw readout) (HEK293T; 16.7 uM, experiment n = 1, technical triplicates): 0.450 and 0.504 and 0.484
- MTT data (raw readout) (HEK293T; 16.7 uM, experiment n = 2, technical triplicates): 0.372 and 0.345
- MTT data (raw readout) (HEK293T; 50 uM, experiment n = 2, technical triplicates): 0.011 and 0.012
- IC50 (HEK293T; Homo sapiens, HEK-293T): 3.2 µM
- susceptibility of gyrA S97L mutant [2]: resistant
- MIC [2, 4]: 3.1 µM (≈ 1.43 µg/mL)
- MIC [2, 5]: 3.1 µM (≈ 1.43 µg/mL)
- MIC [2, 6]: > 50 µM
